Converted amounts (≈) assume the structure as drawn.
Columns and labels:
[1] = target: T1, liver carboxylesterase (Sus scrofa, UniProt Q29550); assay: Stability of the compound assessed as pig liver carboxylesterase-mediated compound hydrolysis at 10 mM measured after 24 hrs by HPLC analysis; assay type: ADME; conditions: read-out: Drug degradation
T1 sequence (Q29550 whole entry): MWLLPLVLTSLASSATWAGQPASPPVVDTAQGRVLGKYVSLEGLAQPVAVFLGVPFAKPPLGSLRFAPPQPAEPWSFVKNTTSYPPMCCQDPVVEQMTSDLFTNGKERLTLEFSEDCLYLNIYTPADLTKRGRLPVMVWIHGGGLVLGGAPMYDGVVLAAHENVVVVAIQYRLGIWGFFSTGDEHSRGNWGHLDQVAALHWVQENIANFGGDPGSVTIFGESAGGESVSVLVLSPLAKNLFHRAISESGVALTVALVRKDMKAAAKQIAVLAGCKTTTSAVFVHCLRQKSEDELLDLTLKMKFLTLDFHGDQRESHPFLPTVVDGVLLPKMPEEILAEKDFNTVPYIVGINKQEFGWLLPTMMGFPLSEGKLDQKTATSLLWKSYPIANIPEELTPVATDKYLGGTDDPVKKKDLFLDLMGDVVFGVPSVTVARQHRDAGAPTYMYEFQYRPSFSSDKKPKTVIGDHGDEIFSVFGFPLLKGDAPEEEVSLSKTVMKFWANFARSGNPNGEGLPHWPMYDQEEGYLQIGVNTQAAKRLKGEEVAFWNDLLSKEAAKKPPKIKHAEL

[2] = target: T1, liver carboxylesterase; assay: Stability of the compound assessed as pig liver carboxylesterase-mediated compound hydrolysis at 10 mM measured after 12 hrs by HPLC analysis; assay type: ADME; conditions: read-out: Drug degradation
[3] = Volume of distribution in Sprague-Dawley rat at 80 mg/kg, po administered as single dose measured upto 48 hrs by LC-MS/MS analysis; conditions: in vivo
[4] = Toxicity in BALB/c nude mouse xenografted with human 143B cells assessed as necrosis in kidney at 5 to 20 mg/kg, po administered once daily for 28 consecutive days by hematoxylin-eosin staining based assay; assay type: organism-based; conditions: in vivo, 672 h, dose 5-20 mg/kg, time 28 day
[5] = Antiproliferative activity against […] B16 cells assessed as inhibition of cell proliferation incubated for 72 hrs by MTT assay; assay type: functional, cell-based; conditions: B16, 72 h
[6] = test system: 143B; assay: Induction of apoptosis in human 143B cells assessed as apoptotic cells at 2.5 uM incubated for 24 hrs by Annexin V-FITC/PI double staining based flow cytometric analysis (reference value: 3.9%); assay type: functional
[7] = test system: 143B; assay: Induction of cell cycle arrest in human 143B cells assessed as accumulation at G1 phase at 2.5 uM incubated for 48 hrs by propidium iodide staining based flow cytometry (reference value: 66.62 %); assay type: functional
[8] = Toxicity in BALB/c nude mouse xenografted with human 143B cells assessed as necrosis in lung at 5 to 20 mg/kg, po administered once daily for 28 consecutive days by hematoxylin-eosin staining based assay; assay type: organism-based; conditions: in vivo, 672 h, dose 5-20 mg/kg, time 28 day
[9] = MRT (0 to infinity) in Sprague-Dawley rat at 80 mg/kg, po administered as single dose measured upto 48 hrs by LC-MS/MS analysis; conditions: in vivo
[10] = test system: 143B; assay: Induction of cell cycle arrest in human 143B cells assessed as accumulation at S phase at 10 uM incubated for 48 hrs by propidium iodide staining based flow cytometry (reference value: 32.03 %); assay type: functional
[11] = test system: A549; assay: Antiproliferative activity against human A549 cells assessed as inhibition of cell proliferation incubated for 72 hrs by MTT assay; assay type: functional, cell-based; conditions: A549, 72 h
[12] = in vivo; conditions: Sprague-Dawley, rat, po, 80 mg/kg
Description: AUC (0 to t) in Sprague-Dawley rat at 80 mg/kg, po administered as single dose measured upto 48 hrs by LC-MS/MS analysis

[13] = Toxicity in BALB/c nude mouse xenografted with human 143B cells assessed as body weight loss at 20 mg/kg, po administered once daily for 28 consecutive days and measured every 3 days; assay type: organism-based; conditions: in vivo, 672 h, time 28 day
[14] = test system: HUVEC; assay: Cytotoxicity against HUVEC assessed as reduction in cell viability incubated for 72 hrs by MTT assay; assay type: cell-based; conditions: Homo sapiens
[15] = test system: 143B; assay: Antitumor activity against human 143B cells xenografted in BALB/c nude mouse assessed as tumor growth inhibition at 20 mg/kg, po administered once daily for 28 consecutive days relative to control; assay type: functional; conditions: 672 h, time 28 day, read-out: TGI
[16] = in vivo; conditions: Sprague-Dawley, rat, po, 80 mg/kg; remark: listed apart in the source
Description: Cmax in Sprague-Dawley rat at 80 mg/kg, po administered as single dose measured upto 48 hrs by LC-MS/MS analysis

[17] = Water solubility of the compound measured by UV-Visible spectral analysis; assay type: physicochemical; conditions: water; read-out: solubility
[18] = target: Glutathione S-transferase P (Homo sapiens, UniProt P09211); assay: Time dependent inhibition of GSTP1-1 (unknown origin) assessed as inhibition constant using reduced GSH and CDNB as substrate by spectrophotometric method
[19] = Toxicity in BALB/c nude mouse xenografted with human 143B cells assessed as necrosis in heart at 5 to 20 mg/kg, po administered once daily for 28 consecutive days by hematoxylin-eosin staining based assay; assay type: organism-based; conditions: in vivo, 672 h, dose 5-20 mg/kg, time 28 day
[20] = Toxicity in BALB/c nude mouse xenografted with human 143B cells assessed as heart edema at 5 to 20 mg/kg, po administered once daily for 28 consecutive days by hematoxylin-eosin staining based assay; assay type: organism-based; conditions: in vivo, 672 h, dose 5-20 mg/kg, time 28 day
[21] = test system: 143B; assay: Induction of apoptosis in human 143B cells assessed as apoptotic cells at 10 uM incubated for 24 hrs by Annexin V-FITC/PI double staining based flow cytometric analysis (reference value: 3.9%); assay type: functional
[22] = Toxicity in BALB/c nude mouse xenografted with human 143B cells assessed as liver edema at 5 to 20 mg/kg, po administered once daily for 28 consecutive days by hematoxylin-eosin staining based assay; assay type: organism-based; conditions: in vivo, 672 h, dose 5-20 mg/kg, time 28 day

Glutathione S-transferase P, sequence (P09211 whole entry): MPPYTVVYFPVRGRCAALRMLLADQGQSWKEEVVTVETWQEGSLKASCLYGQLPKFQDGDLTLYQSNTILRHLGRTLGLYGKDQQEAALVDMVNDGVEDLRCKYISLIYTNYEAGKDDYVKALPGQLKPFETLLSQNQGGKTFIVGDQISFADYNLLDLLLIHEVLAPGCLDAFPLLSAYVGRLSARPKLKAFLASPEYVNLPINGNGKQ

metabolised at 24 h, 10000 µM [1]: 45% | metabolised at 12 h, 10000 µM [2]: 33% | Vd [3]: 7.62 L/kg | MRT inf at 48 h [9]: 6.54 h | IC50 [11]: 1580 nM | AUC(0-t) at 48 h [12]: 6420 ng·h/mL | Cmax at 48 h [16]: 1810 ng/mL | solubility [17]: 9000 µg/mL (≈ 18.7 mM) | Ki [18]: 170 nM
Structure (SMILES): CN(C)CCCNC(=O)CCC(=O)OCCCCCCSc1ccc([N+](=O)[O-])c2nonc12
Activity [4]: Non-Toxic | IC50 [5]: 950 nM | Activity [6]: 46.5% | Activity [7]: 49.79% | Activity [8]: Non-Toxic | Activity [10]: 30.32% | Activity [13]: Non-Toxic | IC50 [14]: 1600 nM | inhibition in vivo at 20 mg/kg [15]: 74.5% | Activity [19]: Non-Toxic | Activity [20]: Non-Toxic | Activity [21]: 84% | Activity [22]: Non-Toxic
